{"source": "patent US20170079966A1", "about": "“INHIBITION OF TUMOR CELL INTERACTIONS WITH THE MICROENVIRONMENT RESULTING IN A REDUCTION IN TUMOR GROWTH AND DISEASE PROGRESSION” (Deciphera Pharmaceuticals, LLC, priority 2014, published 2017)", "key": {"U87-MG xenograft glioma": {"tested_on": "U87-MG xenograft glioma", "test": "Orthotopic U87-MG xenograft efficacy model (BLI)", "type": "in vivo, mice", "conditions": "after two weeks of treatment; bevacizumab 5 mg/kg IP every three days; Compound 1 10 mg/kg BID", "experimental": "Protocol for in vivo xenograft efficacy study. […] Treatments began on Day 31.\nThe tumor cells were injected intracerebroventricularly (ICV) and tumor growth was monitored in vivo by quantitation of luciferase-mediated BLI."}, "[1]": {"tested_on": "circulating TIE2+ and TIE2+/MET+ monocytes", "test": "Flow cytometry of circulating TIE2/MET-expressing monocytes from U87-MG xenograft model", "type": "in vivo, mice", "conditions": "single agents; after five weeks of treatment", "experimental": "Flow cytometry of circulating TIE2/MET-expressing monocytes from U87-MG xenograft model. Peripheral blood samples were fixed using Lyse/Fix buffer (BD Biosciences, San Jose, Calif.). BD Fc Block was added and cells were stained with CD11b-PECy7 and Gr1-APC antibodies (BD Pharmingen), and TIE2-PE and MET-FITC antibodies (eBioscience) or isotype controls. Data was collected on an Accuri C6 cytometer. Monocytes were gated using side and forward scatter.\nTo monitor these monocytes in the U87 survival model, peripheral monocytes were gated on CD11b+/Grl-surface markers and TIE2^+ and/or TIE2^+/MET^+ cells quantitated. In the U87 glioma survival study, we observed both of these TIE2^+ expressing monocyte populations in the circulation of vehicle-treated mice after five weeks of treatment. […] The lowered population of both of these TIE2^+ monocyte populations in the combination cohort was consistent with greater survival benefit (FIG. 6)."}, "GSC11 glioblastoma cells": {"tested_on": "GSC11 glioblastoma cells", "test": "GSC11 glioma stem cell patient-derived xenograft model (tumor volume, immunohistochemistry)", "type": "in vivo, mice", "experimental": "(§1) For the in vivo experiments, 4- to 6-week-old female nude mice that were strictly inbred at The University of Texas MD Anderson Cancer Center and maintained in the MD Anderson Veterinary in accordance with institutional guidelines were used. For the in vivo experiments, GSC11 (5×10^5) or GSC17 (5×10^4) glioblastoma cells were implanted intracranially into nude mice. […] Control mice for these cohorts were treated with phosphate-buffered saline by i.p. injection and/or with 0.4% HPMC vehicle by oral gavage. One cohort of 10 mice per group were treated continuously and followed for survival. A separate cohort of 9 mice per group were treated continuously until the designated time point, and the tumors from these mice were extracted at 3, 4, 5 weeks in GSC11 xenograft mice model and at 3.5, 4.5, 5.5 weeks in GSC17 xenograft mice model after the start of treatment.\n(§2) When the mice treated for the designated time period developed signs and symptoms of advanced tumors, they were euthanized, and their brains were removed, fixed in 4% formaldehyde for 24 hours, and embedded in paraffin. The tissues were then sectioned serially (4 μm) and stained with hematoxylin and eosin (Sigma-Aldrich). Tumor formation and phenotype were determined by histologic analysis of the hematoxylin- and eosin-stained sections. The tumor volume, greatest longitudinal diameter (length), and greatest transverse diameter (width) were measured using an external caliper and Adobe Illustrator software. The tumor volumes were calculated by the following formula: volume=½(length×width^2).\n(§3) For immunohistochemical analyses, the tissue sections were deparaffinized and subjected to graded rehydration. After blocking the tissue in 5% horse and goat serum and antigen retrieval solution (citrate buffer, pH 6.0), we incubated the tissue sections overnight at 4° C. with primary antibodies against Factor VIII (1:500; A0082, Dako) to assess microvessel formation, vimentin (1:100; M0725, Dako) to assess mesenchymal marker expression, F4/80 (1:50; 123102, BioLegend) to assess monocyte infiltration, nestin (1:300; Ab6142, Abcam) to assess glioma stem cell marker expression, HGF (1:200; LS-B4657, LSBio), and TIE2 (1:50; Santa Cruz Biotechnology) to assess TIE2-expressing monocyte infiltration. Texas red fluorescein isothiocyanate-conjugated secondary antibodies or anti-rat immunoglobulin G antibodies (Invitrogen) were used for 1 hour at room temperature.\n(§4) All statistical analyses were conducted with the GraphPad 6 (InStat) software for Windows 7. Survival analysis was conducted using the Kaplan-Meier method, and differences in survival between treatment groups were assessed using the log-rank test. All other comparisons were performed using an unpaired two-tailed Student t-test. Summary statistics for continuous data are expressed as the mean±standard error of the mean. P values less than 0.05 were considered statistically significant. The nestin staining was assessed using the Image-Pro Plus system version 7.0 (Media Cybernetics) in ×10 fields of at least three tumor samples per group with three to four different sections per tumor sample."}, "GSC17 glioblastoma cells": {"tested_on": "GSC17 glioblastoma cells", "test": "GSC17 glioma stem cell patient-derived xenograft model (tumor volume, immunohistochemistry)", "type": "in vivo, mice", "experimental": "as §1, §2, §3, §4"}, "SK-MEL-28 cells": {"tested_on": "SK-MEL-28 cells", "test": "HGF-stimulated melanoma proliferation cell assay", "type": "cell-based", "conditions": "Homo sapiens, 72 h", "experimental": "SK-MEL-28 cells were added to 96-well plates (2,500 cells/well). Effects on cell proliferation were assessed by incubation of SK-MEL-28 cells in complete media, media containing 50 ng/mL HGF, or media mixed 1:1 with MRC-5 fibroblast-conditioned media. Plates were incubated for 72 h."}, "[2]": {"tested_on": "SK-MEL-28 and SK-MEL-5 cells (pERK, pMET, AKT)", "test": "HGF-stimulated melanoma cell signal transduction assay", "type": "cell-based", "conditions": "50 nM", "experimental": "SK-MEL-5 and SK-MEL-28 cells were added to 12-well plates at 450,000 and 250,000 cells/well, respectively, and incubated overnight. […] Cells were then stimulated with 50 ng/mL HGF for 1 hr. Antibodies were obtained from Cell Signaling Technology."}, "PyMT mammary tumor": {"tested_on": "PyMT mammary tumor", "test": "PyMT syngeneic breast cancer model", "type": "in vivo, mice", "experimental": "Female FVB/NJ mice were implanted in the 4th mammary fat pad with one million cells that had been dissociated from tumor fragments from MMTV-PyMT donor mice. […] Mice (n=10/group) were dosed for three weeks, then, primary tumor and lungs were collected and fixed. Lung sections were stained with H&E at Premier Laboratory. Lung metastases (≧10 cells) were counted manually via microscopy. Data were analyzed via one-way analysis of variance (ANOVA), with post-hoc analysis by the method of Holm-Sidak. For analysis of TIE2-positive macrophages, tumor sections were stained with TIE2 and CD31 antibodies at Premier Laboratory. The density of TIE2-positive cells at the stroma/tumor boundary in each tumor was scored using 0=no staining, 1=low, 2=medium, and 3=high."}}, "note": "Read-outs that look alike come from different tables or passages of the source."}
{"compound": "bevacizumab [reference compound]", "values": [{"measurement": "Decrease in BLI signal compared to vehicle", "setting": "U87-MG xenograft glioma", "result": 63, "unit": "%"}, {"measurement": "Numbers of circulating TIE2+ and TIE2+/MET+ monocyte populations", "setting": "[1]", "result": "did not alter"}, {"measurement": "Tumor volume at 3 weeks", "setting": "GSC11 glioblastoma cells; GSC11, bevacizumab 10 mg/kg i.p. twice per week, Compound 1 10 mg/kg oral twice daily", "result": "14.3±6.9", "unit": "mm^3"}, {"measurement": "Tumor volume at 4 weeks", "setting": "GSC11 glioblastoma cells; GSC11, same dosing", "result": "30.7±4.2", "unit": "mm^3"}, {"measurement": "Tumor volume at 5 weeks", "setting": "GSC11 glioblastoma cells; GSC11, same dosing", "result": "46.6±4.5", "unit": "mm^3"}, {"measurement": "Factor VIII-positive area", "setting": "GSC11 glioblastoma cells; GSC11 model", "result": "3.3±1.1", "unit": "%"}, {"measurement": "Nestin-positive area", "setting": "GSC11 glioblastoma cells; GSC11 xenograft mouse model", "result": "59.8±6.0", "unit": "%"}, {"measurement": "Mesenchymal tumor marker vimentin / EMT (immunohistochemistry)", "setting": "GSC11 glioblastoma cells; GSC-11 glioma model", "result": "therapy-induced increase in EMT"}, {"measurement": "Macrophage infiltration into tumor (F4/80 IHC staining)", "setting": "GSC11 glioblastoma cells; GSC-11 glioma xenograft model", "result": "stimulating the influx of tumor-promoting macrophages"}, {"measurement": "Tumor volume at 3.5 weeks", "setting": "GSC17 glioblastoma cells; GSC17, bevacizumab 10 mg/kg i.p. twice per week, Compound 1 10 mg/kg oral twice daily", "result": "0.4±0.4", "unit": "mm^3"}, {"measurement": "Tumor volume at 4.5 weeks", "setting": "GSC17 glioblastoma cells; GSC17, same dosing", "result": "0.05±0.03", "unit": "mm^3"}, {"measurement": "Tumor volume at 5.5 weeks", "setting": "GSC17 glioblastoma cells; GSC17, same dosing", "result": "9.6±4.6", "unit": "mm^3"}, {"measurement": "Factor VIII-positive area", "setting": "GSC17 glioblastoma cells; GSC17 xenograft mouse model", "result": "3.0±0.3", "unit": "%"}, {"measurement": "Nestin-positive area", "setting": "GSC17 glioblastoma cells; GSC17 xenograft mouse model", "result": "20.6±2.7", "unit": "%"}, {"measurement": "Mesenchymal tumor marker vimentin / EMT (immunohistochemistry)", "setting": "GSC17 glioblastoma cells; GSC-17 glioma model", "result": "therapy-induced increase in EMT"}, {"measurement": "Tumor infiltration of TIE2-positive/F4/80-positive cells", "setting": "GSC17 glioblastoma cells; GSC-17 glioma xenograft model", "result": "increased"}]}
{"compound": "CC(C)(C)c1nc(-c2cccc(NS(=O)(=O)c3c(F)cccc3F)c2F)c(-c2ccnc(N)n2)s1", "note": "[dabrafenib]", "values": [{"measurement": "IC50", "setting": "SK-MEL-28 cells; 50 ng/mL HGF or MRC-5 fibroblast-conditioned media, read-out: IC50, proliferation of SK-MEL-28 with HGF or fibroblast-conditioned media", "result": "> 10000", "unit": "nM"}, {"measurement": "IC50", "setting": "SK-MEL-28 cells; complete media, read-out: IC50, proliferation of SK-MEL 28", "result": 10.6, "unit": "nM"}, {"measurement": "Phosphorylation of ERK upon HGF stimulation", "setting": "[2]; 50 ng/mL HGF 1 hr", "result": "ERK remained fully phosphorylated"}, {"measurement": "Phosphorylation of ERK", "setting": "[2]; no HGF", "result": "inhibited phosphorylation"}]}
{"compound": "CC(=O)O[C@H]1C(=O)[C@@]2(C)[C@H]([C@H](OC(=O)c3ccccc3)[C@]3(O)C[C@H](OC(=O)[C@H](O)[C@@H](NC(=O)c4ccccc4)c4ccccc4)C(C)=C1C3(C)C)[C@]1(OC(C)=O)CO[C@@H]1C[C@@H]2O", "note": "[paclitaxel, reference compound]", "values": [{"measurement": "Tumor growth inhibition (TGI)", "setting": "PyMT mammary tumor; after dosing for three weeks, paclitaxel 10 mg/kg i.v. every 5 days, Compound 1 15 mg/kg twice daily", "result": 42, "unit": "%"}, {"measurement": "Reduction of TIE2 score (stromal density of TIE2+ cells)", "setting": "PyMT mammary tumor; same dosing", "result": "did not reduce"}, {"measurement": "Reduction of lung metastases compared to controls", "setting": "PyMT mammary tumor; same dosing", "result": 64, "unit": "%"}]}
